This note sets out measurements from patent US10383859B2, “Benzo[d]thiazole derivative or salt thereof, and pharmaceutical composition including same” (Yuhan Corporation, priority 2016, dated 2019).

The test system of the assay is A549 cells. In words: Cell migration assay (24-well transwell, laminin). Format: cell-based, human. Conditions: Homo sapiens, A549, 6 h, laminin 10 μg/mL in lower well, test compounds 0.39˜100 μM, migrated cells counted, read-out: Inhibitory activity against cell migration. The procedure, abridged:
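Serum-free RPMI1640 transwell (8.0 μm pore) with laminin (10 μg/mL) in lower well; A549 cells (1×10^6 cells/mL) and compounds (0.39–100 μM) in both chambers, 6 h at 37 °C. Hematoxylin-stained cells on membrane underside counted at three fields (×20); IC50 by non-linear regression.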
On to `COc1ccc(CCN(Cc2ccc(C(=O)O)cc2)c2nc3cc(F)c(F)c(F)c3s2)cc1` [Example 87, 4-{[[2-(4-methoxyphenyl)ethyl](5,6,7-trifluorobenzo[d]thiazol-2-yl)amino]methyl}benzoic acid], for which the IC50 is below 1 µM.
The value for `COc1ccc(CCN(Cc2ccc(C(=O)O)cc2)c2nc3ccc(Cl)c(F)c3s2)cc1` [Example 88, 4-({(6-chloro-7-fluorobenzo[d]thiazol-2-yl)[2-(4-methoxyphenyl)ethyl]amino}methyl)benzoic acid] was below 1 µM; that for `COc1ccc(CCN(Cc2ccc(C(=O)O)cc2)c2nc3cccc(C(F)(F)F)c3s2)cc1` [Example 89, 4-{[[2-(4-methoxyphenyl)ethyl](7-trifluoromethyl-benzo[d]thiazol-2-yl)amino]methyl}benzoic acid] was below 1 µM.
The value for `COc1ccc(CCN(Cc2ccc(C(=O)O)cc2)c2nc3ccc(F)c(F)c3s2)cc1` [Example 90, 4-({(6,7-difluorobenzo[d]thiazol-2-yl)-[2-(4-methoxyphenyl)ethyl]amino}methyl)benzoic acid] was below 1 µM; that for `COc1ccc(CCN(Cc2ccc(C(=O)O)cc2)c2nc3cc(Br)ccc3s2)cc1` [Example 91, 4-({(5-bromo-benzo[d]thiazol-2-yl)[2-(4-methoxyphenyl)ethyl]amino}methyl)benzoic acid] was below 1 µM.
Then `COc1ccc(CCN(Cc2ccc(C(=O)O)cc2)c2nc3ccc(F)cc3s2)cc1` [Example 92, 4-({(6-fluorobenzo[d]thiazol-2-yl)[2-(4-methoxyphenyl)ethyl]amino}methyl)benzoic acid], with below 1 µM.
Turning to `COc1ccc(CCN(Cc2ccc(C(=O)O)cc2)c2nc3cc(F)cc(F)c3s2)cc1` [Example 93, 4-({(5,7-difluorobenzo[d]thiazol-2-yl)[2-(4-methoxyphenyl)ethyl]amino}methyl)benzoic acid], the IC50 was below 1 µM.
In the case of `COc1ccc(CCN(Cc2ccc(C(=O)O)cc2)c2nc3ccc(C)c(F)c3s2)cc1` [Example 94, 4-({(7-fluoro-6-methyl-benzo[d]thiazol-2-yl)[2-(4-methoxyphenyl)ethyl]amino}methyl)benzoic acid], the IC50 was below 1 µM.
Then `COc1ccc(CCN(Cc2ccc(C(=O)O)cc2)c2nc3c(F)cc(F)cc3s2)cc1` [Example 95, 4-({(4,6-difluorobenzo[d]thiazol-2-yl)[2-(4-methoxyphenyl)ethyl]amino}methyl)benzoic acid], with below 1 µM; and `COc1ccc(CCN(Cc2ccc(C(=O)O)cc2)c2nc3cccc(C)c3s2)cc1` [Example 96, 4-({[2-(4-methoxyphenyl)ethyl](7-methyl-benzo[d]thiazol-2-yl)amino}methyl)benzoic acid], with above 10 µM.
In the case of `COc1ccc(CCN(Cc2ccc(C(=O)O)cc2)c2nc3ccc(C)cc3s2)cc1` [Example 97, 4-({[2-(4-methoxyphenyl)ethyl](6-methyl-benzo[d]thiazol-2-yl)amino}methyl)benzoic acid], the IC50 is above 10 µM.
The value for `COc1ccc(CCN(Cc2ccc(C(=O)O)cc2)c2nc3cc(C)ccc3s2)cc1` [Example 98, 4-({[2-(4-methoxyphenyl)ethyl](5-methyl-benzo[d]thiazol-2-yl)amino}methyl)benzoic acid] was above 10 µM; that for `COc1ccc(CCN(c2nc3cc(F)cc(F)c3s2)C(C)c2ccc(C(=O)O)cc2)cc1` (centres unmarked) [Example 99, 4-(1-{(5,7-difluorobenzo[d]thiazol-2-yl)[2-(4-methoxyphenyl)ethyl]amino}ethyl)benzoic acid] was above 10 µM.
Then `COc1ccc(CCN(c2nc3cc(F)c(F)cc3s2)C(C)c2ccc(C(=O)O)cc2)cc1` (centres unmarked) [Example 100, 4-(1-{(5,6-difluorobenzo[d]thiazol-2-yl)[2-(4-methoxyphenyl)ethyl]amino}ethyl)benzoic acid], with above 10 µM; and `COc1ccc(CCN(c2nc3cc(F)c(F)c(F)c3s2)C(C)c2ccc(C(=O)O)cc2)cc1` (centres unmarked) [Example 101, 4-(1-{[2-(4-methoxyphenyl)ethyl](5,6,7-trifluorobenzo[d]thiazol-2-yl)amino}ethyl)benzoic acid], with above 10 µM.
Regarding `COc1ccc(CCN(c2nc3ccc(Cl)c(F)c3s2)C(C)c2ccc(C(=O)O)cc2)cc1` (centres unmarked) [Example 102, 4-(1-{(6-chloro-7-fluorobenzo[d]thiazol-2-yl)[2-(4-methoxyphenyl)ethyl]amino}ethyl)benzoic acid], the IC50 is above 10 µM.
As to `COc1ccc(CCN(c2nc3cc(Br)ccc3s2)C(C)c2ccc(C(=O)O)cc2)cc1` (centres unmarked) [Example 103, 4-(1-{(5-bromo-benzo[d]thiazol-2-yl)[2-(4-methoxyphenyl)ethyl]amino}ethyl)benzoic acid], the IC50 is above 10 µM.
Then `COc1ccc(CCN(c2nc3ccc(F)c(F)c3s2)C(C)c2ccc(C(=O)O)cc2)cc1` (centres unmarked) [Example 104, 4-(1-{(6,7-difluorobenzo[d]thiazol-2-yl)[2-(4-methoxyphenyl)ethyl]amino}ethyl)benzoic acid], with above 10 µM; and `COc1ccc(CCN(c2nc3ccc(C)c(F)c3s2)C(C)c2ccc(C(=O)O)cc2)cc1` (centres unmarked) [Example 105, 4-(1-{(7-fluoro-6-methyl-benzo[d]thiazol-2-yl)[2-(4-methoxyphenyl)ethyl]amino}ethyl)benzoic acid], with above 10 µM.
Then `COc1ccc(CCN(c2nc3cccc(C(F)(F)F)c3s2)C(C)c2ccc(C(=O)O)cc2)cc1` (centres unmarked) [Example 106, 4-(1-{[2-(4-methoxyphenyl)ethyl][7-(trifluoromethyl)-benzo[d]thiazol-2-yl]amino}ethyl)benzoic acid], with above 10 µM.
Then `COc1ccc(CCN(c2nc3cc(Cl)ccc3s2)C(C)c2ccc(C(=O)O)cc2)cc1` (centres unmarked) [Example 107, 4-(1-{(5-chloro-benzo[d]thiazol-2-yl)[2-(4-methoxyphenyl)ethyl]amino}ethyl)benzoic acid], with above 10 µM; and `COc1ccc(CCN(c2nc3ccc(Cl)cc3s2)C(C)c2ccc(C(=O)O)cc2)cc1` (centres unmarked) [Example 108, 4-(1-{(6-chloro-benzo[d]thiazol-2-yl)[2-(4-methoxyphenyl)ethyl]amino}ethyl)benzoic acid], with above 10 µM; and `COc1ccc(CCN(c2nc3cccc(Cl)c3s2)C(C)c2ccc(C(=O)O)cc2)cc1` (centres unmarked) [Example 109, 4-(1-{(7-chloro-benzo[d]thiazol-2-yl)[2-(4-methoxyphenyl)ethyl]amino}ethyl)benzoic acid], with below 1 µM.
Take `COc1ccc(CCN(c2nc3cccc(C)c3s2)C(C)c2ccc(C(=O)O)cc2)cc1` (centres unmarked) [Example 110, 4-(1-{[2-(4-methoxyphenyl)ethyl](7-methyl-benzo[d]thiazol-2-yl)amino}ethyl)benzoic acid]: the IC50 was above 10 µM.
The value for `COc1ccc(CCN(c2nc3ccc(C)cc3s2)C(C)c2ccc(C(=O)O)cc2)cc1` (centres unmarked) [Example 111, 4-(1-{[2-(4-methoxyphenyl)ethyl](6-methyl-benzo[d]thiazol-2-yl)amino}ethyl)benzoic acid] was above 10 µM; that for `COc1ccc(CCN(c2nc3cc(C)ccc3s2)C(C)c2ccc(C(=O)O)cc2)cc1` (centres unmarked) [Example 112, 4-(1-{[2-(4-methoxyphenyl)ethyl](5-methyl-benzo[d]thiazol-2-yl)amino}ethyl)benzoic acid] was above 10 µM; that for `COc1ccc(CCN(c2nc3cc(F)ccc3s2)C(C)c2ccc(C(=O)O)cc2)cc1` (centres unmarked) [Example 113, 4-(1-{(5-fluorobenzo[d]thiazol-2-yl)[2-(4-methoxyphenyl)ethyl]amino}ethyl)benzoic acid] was above 10 µM.
Then `COc1ccc(CCN(c2nc3c(F)cc(F)cc3s2)C(C)c2ccc(C(=O)O)cc2)cc1` (centres unmarked) [Example 114, 4-(1-{(4,6-difluorobenzo[d]thiazol-2-yl)[2-(4-methoxyphenyl)ethyl]amino}ethyl)benzoic acid], with above 10 µM; and `COc1ccc(CCN(Cc2ccc(C(=O)O)cc2)c2nc3ccc(Br)cc3s2)cc1` [Example 115, 4-({(6-bromo-benzo[d]thiazol-2-yl)[2-(4-methoxyphenyl)ethyl]amino}methyl)benzoic acid], with above 10 µM; and `COc1ccc(CCN(c2nc3ccc(Br)cc3s2)C(C)c2ccc(C(=O)O)cc2)cc1` (centres unmarked) [Example 116, 4-(1-{(6-bromo-benzo[d]thiazol-2-yl)[2-(4-methoxyphenyl)ethyl]amino}ethyl)benzoic acid], with above 10 µM.
The value for `COc1ccc(CCN(Cc2ccc(C(=O)O)cc2)c2nc3ccc(C(=O)O)cc3s2)cc1` [Example 117, 2-{(4-carboxybenzyl)[2-(4-methoxyphenyl)ethyl]amino}benzo[d]thiazole-6-carboxylic acid] was above 10 µM; that for `COc1ccc(CCN(Cc2ccc(C(=O)O)cc2)c2nc3cccc(C(=O)O)c3s2)cc1` [Example 118, 2-{(4-carboxybenzyl)[2-(4-methoxyphenyl)ethyl]amino}benzo[d]thiazole-7-carboxylic acid] was above 10 µM.
Turning to `COc1ccc(CCN(Cc2ccc(C(=O)O)cc2)c2nc3ccc(C(F)(F)F)cc3s2)cc1` [Example 119, 4-({[2-(4-methoxyphenyl)ethyl][6-(trifluoromethyl)benzo[d]thiazol-2-yl]amino}methyl)benzoic acid], the IC50 is above 10 µM.
Regarding `COc1ccc(CCN(Cc2ccc(C(=O)O)cc2)c2nc3cc(C(F)(F)F)ccc3s2)cc1` [Example 120, 4-({[2-(4-methoxyphenyl)ethyl][5-(trifluoromethyl)benzo[d]thiazol-2-yl]amino}methyl)benzoic acid], the IC50 was below 1 µM.
Then `COc1ccc(CCN(Cc2ccc(C(=O)O)cc2)c2nc3ccc(C(F)(F)F)c(F)c3s2)cc1` [Example 121, 4-({[7-fluoro-6-(trifluoromethyl)benzo[d]thiazol-2-yl][2-(4-methoxyphenyl)ethyl]amino}methyl)benzoic acid], with above 10 µM.
